From US8895585B2, “Nicotinamide derivative or salt thereof” (FUJIFILM Corporation, priority 2010, dated 2014)

What was measured:
[1] = biological target: T1, glutathione S-transferase (GST)-fused full-length human Syk protein (Homo sapiens, UniProt P43405); assay: Syk enzyme assay; type: biochemical; conditions: Syk enzyme assay, Test Example 1; read-out: IC50 of Syk-inhibitory activity
T1 construct: (GST)-fused full-length human Syk protein; GST (glutathione S-transferase); purchased Carna Biosciences
Method in brief: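 GST-tagged full-length human Syk (baculovirus) preincubated with compound 15 min at room temperature (pH 7.0, 10 mM MgCl2), then reacted 40 min with 0.4 μM biotinylated peptide substrate and 27 μM ATP (final). Phosphorylation read by HTRF (615/665 nm) after EDTA stop; IC50 reported.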

THP-1 cells = assay: TNFα generation assay; type: cell-based, human; conditions: Homo sapiens, THP-1, THP-1 cells; Table 22; read-out: IC50 in TNFα generation assay
Method in brief: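 Secreted TNFα in supernatant quantified by ELISA or AlphaLISA after 7 h culture on human IgG-coated wells (10 μg/ml coating). Cells were IFN-γ-differentiated THP-1 (10 ng/ml, 2 days), exposed to compound for 30 min at room temperature before plating.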

IC50 [1] [µM]	IC50 (THP-1 cells) [µM]	SMILES
< 0.01	0.065 to 0.13	NC(=O)c1cc(F)c(N[C@@H]2CCCC[C@@H]2N)nc1Nc1cncc(Cl)c1 (relative stereo) [Example 004-097, 6-(cis-2-aminocyclohexylamino)-2-((5-chloropyridin-3-yl)amino)-5-fluoronicotinamide]
0.01 to 0.05	0.13 to 0.2	NC(=O)c1cc(F)c(N[C@@H]2CCCC[C@@H]2N)nc1Nc1cncc(F)c1 (relative stereo) [Example 004-105, 6-(cis-2-aminocyclohexylamino)-5-fluoro-2-((5-fluoropyridin-3-yl)amino)nicotinamide]
< 0.01	0.13 to 0.2	COCCOc1cccc(-c2cncc(Nc3nc(N[C@@H]4CCCC[C@@H]4N)c(F)cc3C(N)=O)c2)c1 (relative stereo) [Example 004-109, 6-(cis-2-aminocyclohexylamino)-5-fluoro-2-((5-(3-(2-methoxyethoxy)phenyl)pyridin-3-yl)-amino)nicotinamide]
< 0.01	0.13 to 0.2	COc1cccc(-c2cncc(Nc3nc(N[C@@H]4CCCC[C@@H]4N)c(F)cc3C(N)=O)c2)c1 (relative stereo) [Example 004-113, 6-(cis-2-aminocyclohexylamino)-5-fluoro-2-((5-(3-methoxyphenyl)pyridin-3-yl)amino)-nicotinamide]
< 0.01	0.065 to 0.13	COc1ccc(-c2cncc(Nc3nc(N[C@@H]4CCCC[C@@H]4N)c(F)cc3C(N)=O)c2)cc1 (relative stereo) [Example 004-114, 6-(cis-2-aminocyclohexylamino)-5-fluoro-2-((5-(4-methoxyphenyl)pyridin-3-yl)amino)-nicotinamide]
< 0.01	0.13 to 0.2	Cn1c(F)cc2cc(Nc3nc(N[C@@H]4CCCC[C@@H]4N)c(F)cc3C(N)=O)ccc21 (relative stereo) [Example 004-117, 6-(cis-2-aminocyclohexylamino)-5-fluoro-2-((2-fluoro-1-methyl-1H-indol-5-yl)amino)-nicotinamide]
< 0.01	0.065 to 0.13	NC(=O)c1cc(F)c(N[C@@H]2CCCC[C@@H]2N)nc1Nc1cncc(-c2cnco2)c1 (relative stereo) [Example 004-118, 6-(cis-2-aminocyclohexylamino)-5-fluoro-2-((5-(oxazol-5-yl)pyridin-3-yl)amino)-nicotinamide]
< 0.01	0.13 to 0.2	NC(=O)c1cc(F)c(N[C@@H]2CCCC[C@@H]2N)nc1Nc1cnc2cc(N3CCOCC3)ccc2c1 (relative stereo) [Example 004-123, 6-(cis-2-aminocyclohexylamino)-5-fluoro-2-((7-morpholinoquinolin-3-yl)amino)-nicotinamide]
< 0.01	0.065 to 0.13	NC(=O)c1cc(F)c(N[C@@H]2CCCC[C@@H]2N)nc1Nc1cnc2cc(N)ccc2c1 (relative stereo) [Example 004-125, 6-(cis-2-aminocyclohexylamino)-2-((7-aminoquinolin-3-yl)amino)-5-fluoronicotinamide]
< 0.01	0.13 to 0.2	COCCOc1ccc2cc(Nc3nc(N[C@@H]4CCCC[C@@H]4N)c(F)cc3C(N)=O)cnc2c1 (relative stereo) [Example 004-127, 6-(cis-2-aminocyclohexylamino)-5-fluoro-2-((7-(2-methoxyethoxy)quinolin-3-yl)amino)-nicotinamide]
< 0.01	0.065 to 0.13	COc1ccc2cc(Nc3nc(N[C@@H]4CCCC[C@@H]4N)c(F)cc3C(N)=O)cnc2c1 (relative stereo) [Example 004-128, 6-(cis-2-aminocyclohexylamino)-5-fluoro-2-((7-methoxyquinolin-3-yl)amino)nicotinamide]
< 0.01	0.065 to 0.13	NC(=O)c1cc(F)c(N[C@@H]2CCCC[C@@H]2N)nc1Nc1ccccc1 (relative stereo) [Example 004-129, 6-(cis-2-aminocyclohexylamino)-5-fluoro-2-(phenylamino)nicotinamide]
0.01 to 0.05	0.065 to 0.13	CC(=O)c1cncc(Nc2nc(N[C@@H]3CCCC[C@@H]3N)c(F)cc2C(N)=O)c1 (relative stereo) [Example 004-132, 2-((5-acetylpyridin-3-yl)amino)-6-(cis-2-aminocyclohexylamino)-5-fluoronicotinamide]
< 0.01	0.065 to 0.13	NC(=O)c1cc(F)c(N[C@@H]2CCCC[C@@H]2N)nc1Nc1cncc(-c2ccno2)c1 (relative stereo) [Example 004-141, 6-(cis-2-aminocyclohexylamino)-5-fluoro-2-((5-(isoxazol-5-yl)pyridin-3-yl)amino)-nicotinamide]
< 0.01	0.065 to 0.13	NC(=O)c1cc(F)c(N[C@@H]2CCCC[C@@H]2N)nc1Nc1cncc(-c2ccccc2F)c1 (relative stereo) [Example 004-143, 6-(cis-2-aminocyclohexylamino)-5-fluoro-2-((5-(2-fluorophenyl)pyridin-3-yl)amino)-nicotinamide]
< 0.01	0.13 to 0.2	COc1ccccc1-c1cncc(Nc2nc(N[C@@H]3CCCC[C@@H]3N)c(F)cc2C(N)=O)c1 (relative stereo) [Example 004-149, 6-(cis-2-aminocyclohexylamino)-5-fluoro-2-((5-(2-methoxyphenyl)pyridin-3-yl)amino)-nicotinamide]
< 0.01	0.065 to 0.13	NC(=O)c1cc(F)c(N[C@@H]2CCCC[C@@H]2N)nc1Nc1cccc2cnccc12 (relative stereo) [Example 004-159, 6-(cis-2-aminocyclohexylamino)-5-fluoro-2-((isoquinolin-5-yl)amino)nicotinamide]
0.01 to 0.05	0.13 to 0.2	NC(=O)c1cc(F)c(N[C@@H]2CCCC[C@@H]2N)nc1Nc1cnc2c(c1)OCCO2 (relative stereo) [Example 004-161, 6-(cis-2-aminocyclohexylamino)-2-((2,3-dihydro-[1,4]dioxino[2,3-b]pyridin-7-yl)amino)-5-fluoronicotinamide]
< 0.01	0.13 to 0.2	NC(=O)c1cc(F)c(N[C@@H]2CCCC[C@@H]2N)nc1Nc1cnc2c(c1)CCC2 (relative stereo) [Example 004-162, 6-(cis-2-aminocyclohexylamino)-2-((6,7-dihydro-5H-cyclopenta[b]pyridin-3-yl)amino)-5-fluoronicotinamide]
< 0.01	< 0.065	NC(=O)c1cc(F)c(N[C@@H]2CCCC[C@@H]2N)nc1Nc1ccc2cnccc2c1 (relative stereo) [Example 004-163, 6-(cis-2-aminocyclohexylamino)-5-fluoro-2-((isoquinolin-6-yl)amino)nicotinamide]
< 0.01	0.13 to 0.2	COc1nccc2cc(Nc3nc(N[C@@H]4CCCC[C@@H]4N)c(F)cc3C(N)=O)ccc12 (relative stereo) [Example 004-164, 6-(cis-2-aminocyclohexylamino)-5-fluoro-2-((1-methoxyisoquinolin-6-yl)amino)-nicotinamide]
< 0.01	0.13 to 0.2	COCCOc1nccc2cc(Nc3nc(N[C@@H]4CCCC[C@@H]4N)c(F)cc3C(N)=O)ccc12 (relative stereo) [Example 004-168, 6-(cis-2-aminocyclohexylamino)-5-fluoro-2-((1-(2-methoxyethoxy)isoquinolin-6-yl)amino)-nicotinamide]
< 0.01	0.13 to 0.2	NC(=O)c1cc(F)c(N[C@@H]2CCCC[C@@H]2N)nc1Nc1cncc(-c2ccc(F)cc2F)c1 (relative stereo) [Example 004-181, 6-(cis-2-aminocyclohexylamino)-2-((5-(2,4-difluorophenyl)pyridin-3-yl)amino)-5-fluoronicotinamide]
0.01 to 0.05	0.065 to 0.13	COCc1cncc(Nc2nc(N[C@@H]3CCCC[C@@H]3N)c(F)cc2C(N)=O)c1 (relative stereo) [Example 004-188, 6-(cis-2-aminocyclohexylamino)-5-fluoro-2-((5-(methoxymethyl)pyridin-3-yl)amino)nicotinamide]
< 0.01	0.13 to 0.2	COc1ccc(-c2cncc(Nc3nc(N[C@@H]4CCCC[C@@H]4N)c(F)cc3C(N)=O)c2)c(OC)c1 (relative stereo) [Example 004-190, 6-(cis-2-aminocyclohexylamino)-2-((5-(2,4-dimethoxyphenyl)pyridin-3-yl)amino)-5-fluoronicotinamide]
0.01 to 0.05	0.065 to 0.13	COCc1cc(Nc2nc(N[C@@H]3CCCC[C@@H]3N)c(F)cc2C(N)=O)ccn1 (relative stereo) [Example 004-191, 6-(cis-2-aminocyclohexylamino)-5-fluoro-2-((2-(methoxymethyl)pyridin-4-yl)amino)nicotinamide]
< 0.01	0.065 to 0.13	COc1cccc(-c2cncc(Nc3nc(N[C@@H]4CCCC[C@@H]4N)c(F)cc3C(N)=O)c2)c1F (relative stereo) [Example 004-197, 6-(cis-2-aminocyclohexylamino)-5-fluoro-2-((5-(2-fluoro-3-methoxyphenyl)pyridin-3-yl)amino)nicotinamide]
< 0.01	0.065 to 0.13	COc1ccc(-c2cncc(Nc3nc(N[C@@H]4CCCC[C@@H]4N)c(F)cc3C(N)=O)c2)c(F)c1 (relative stereo) [Example 004-198, 6-(cis-2-aminocyclohexylamino)-5-fluoro-2-((5-(2-fluoro-4-methoxyphenyl)pyridin-3-yl)amino)nicotinamide]
